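In this assay, cells in 96-well plates receive the compound at five concentrations for 48 hours. Endpoints are linearly interpolated between the surrounding concentrations. TGI marks complete inhibition of growth.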
Columns and labels:
Test in all cases: inhibition of tumour cell growth, NCI panel, 48 h
[1] = test system: 786-0 renal
[2] = test system: A498 renal
[3] = test system: A549 NSCLC
[4] = test system: ACHN renal
[5] = test system: BT-549 breast
[6] = test system: CAKI-1 renal
[7] = test system: CCRF-CEM leukemia
[8] = test system: COLO 205 colon
[9] = test system: DLD-1 colon
[10] = test system: DMS 114 small cell lung
[11] = test system: DU-145 prostate
[12] = test system: EKVX NSCLC
[13] = test system: HCC-2998 colon
[14] = test system: HCT-116 colon
[15] = test system: HCT-15 colon
[16] = test system: HL-60(TB) leukemia
[17] = test system: HOP-18 NSCLC
[18] = test system: HOP-62 NSCLC
[19] = test system: HS 578T breast
[20] = test system: IGROV1 ovarian
[21] = test system: K-562 leukemia
[22] = test system: KM12 colon
[23] = test system: KM20L2 colon
[24] = test system: LOX IMVI melanoma
[25] = test system: LXFL 529 NSCLC
[26] = test system: M14 melanoma
[27] = test system: M19-MEL melanoma
[28] = test system: MALME-3M melanoma
[29] = test system: MCF7 breast
[30] = test system: MDA-MB-231 breast
[31] = test system: MOLT-4 leukemia
[32] = test system: NCI-H226 lung
[33] = test system: NCI-H23 lung
[34] = test system: NCI-H460 lung
[35] = test system: NCI-H522 lung
[36] = test system: NCI/ADR-RES ovarian
[37] = test system: OVCAR-3 ovarian
[38] = test system: OVCAR-4 ovarian
[39] = test system: OVCAR-5 ovarian
[40] = test system: OVCAR-8 ovarian
[41] = test system: PC-3 prostate
[42] = test system: RPMI-8226 leukemia
[43] = test system: RXF-631 renal
[44] = test system: SF-268 CNS
[45] = test system: SF-295 CNS
[46] = test system: SF-539 CNS
[47] = test system: SK-MEL-2 melanoma
[48] = test system: SK-MEL-28 melanoma
[49] = test system: SK-MEL-5 melanoma
[50] = test system: SK-OV-3 ovarian
[51] = test system: SN12C renal
[52] = test system: SNB-19 CNS
[53] = test system: SNB-78 CNS
[54] = test system: SR leukemia
[55] = test system: SW-620 colon
[56] = test system: T-47D breast
[57] = test system: TK-10 renal
[58] = test system: U251 CNS
[59] = test system: UACC-257 melanoma
[60] = test system: UACC-62 melanoma
[61] = test system: UO-31 renal
[62] = test system: XF 498 CNS
[63] = test system: DMS 273 small cell lung
[64] = test system: HOP-92 NSCLC
[65] = test system: HT29 colon
[66] = test system: RXF 393 renal
[67] = test system: SNB-75 CNS

SMILES: COc1c(OC(C)=O)c(OC(C)=O)cc2c1-c1ccc(OC)c(=O)cc1C(NC(C)=O)CC2 (stereo unspecified)
- TGI [1]: > 100 µM
- TGI [2]: 2.48 µM
- TGI [3]: > 100 µM
- TGI [4]: > 100 µM
- TGI [5]: > 100 µM
- TGI [6]: > 100 µM
- TGI [7]: > 100 µM
- TGI [8]: 0.133 µM
- TGI [9]: > 100 µM
- TGI [10]: 0.121 µM
- TGI [11]: > 100 µM
- TGI [12]: > 100 µM
- TGI [13]: 24.8 µM
- TGI [14]: 0.942 µM
- TGI [15]: > 70 µM
- TGI [16]: < 0.0103 µM
- TGI [17]: > 100 µM
- TGI [18]: > 73 µM
- TGI [19]: > 100 µM
- TGI [20]: > 100 µM
- TGI [21]: > 100 µM
- TGI [22]: 0.555 µM
- TGI [23]: 0.0795 µM
- TGI [24]: > 100 µM
- TGI [25]: > 53 µM
- TGI [26]: > 100 µM
- TGI [27]: > 100 µM
- TGI [28]: > 100 µM
- TGI [29]: > 100 µM
- TGI [30]: > 100 µM
- TGI [31]: > 85.8 µM
- TGI [32]: 1.09 µM
- TGI [33]: 5.24 µM
- TGI [34]: 13.1 µM
- TGI [35]: 0.0192 µM
- TGI [36]: 74.1 µM
- TGI [37]: 0.071 µM
- TGI [38]: > 100 µM
- TGI [39]: > 100 µM
- TGI [40]: > 70.1 µM
- TGI [41]: > 100 µM
- TGI [42]: > 100 µM
- TGI [43]: 18.2 µM
- TGI [44]: 54.4 µM
- TGI [45]: 0.564 µM
- TGI [46]: 0.173 µM
- TGI [47]: 9.38 µM
- TGI [48]: > 100 µM
- TGI [49]: 0.0264 µM
- TGI [50]: > 48.1 µM
- TGI [51]: > 100 µM
- TGI [52]: > 95.5 µM
- TGI [53]: > 100 µM
- TGI [54]: > 100 µM
- TGI [55]: > 100 µM
- TGI [56]: > 100 µM
- TGI [57]: > 100 µM
- TGI [58]: 9.24 µM
- TGI [59]: > 100 µM
- TGI [60]: > 100 µM
- TGI [61]: > 100 µM
- TGI [62]: 16.2 µM

SMILES: Cc1ccccc1N=Cc1ccc(N(CCC#N)S(=O)(=O)c2ccccc2)cc1
- TGI [1]: > 100 µM
- TGI [2]: > 100 µM
- TGI [3]: > 100 µM
- TGI [4]: > 100 µM
- TGI [6]: > 100 µM
- TGI [7]: > 100 µM
- TGI [8]: > 100 µM
- TGI [9]: > 100 µM
- TGI [10]: > 100 µM
- TGI [63]: > 100 µM
- TGI [12]: > 100 µM
- TGI [13]: > 100 µM
- TGI [14]: > 100 µM
- TGI [15]: > 100 µM
- TGI [16]: > 100 µM
- TGI [17]: > 100 µM
- TGI [18]: > 100 µM
- TGI [64]: > 100 µM
- TGI [65]: > 100 µM
- TGI [20]: > 100 µM
- TGI [21]: > 100 µM
- TGI [22]: > 100 µM
- TGI [23]: > 100 µM
- TGI [24]: > 100 µM
- TGI [25]: > 100 µM
- TGI [26]: > 100 µM
- TGI [27]: > 100 µM
- TGI [28]: > 100 µM
- TGI [31]: > 100 µM
- TGI [32]: > 100 µM
- TGI [33]: > 100 µM
- TGI [34]: > 100 µM
- TGI [35]: > 100 µM
- TGI [37]: > 100 µM
- TGI [38]: > 100 µM
- TGI [39]: > 100 µM
- TGI [40]: > 100 µM
- TGI [42]: > 100 µM
- TGI [66]: > 100 µM
- TGI [43]: > 100 µM
- TGI [44]: > 100 µM
- TGI [45]: > 100 µM
- TGI [46]: > 100 µM
- TGI [47]: > 100 µM
- TGI [48]: > 100 µM
- TGI [49]: > 100 µM
- TGI [50]: > 100 µM
- TGI [51]: > 100 µM
- TGI [52]: > 100 µM
- TGI [67]: > 100 µM
- TGI [53]: > 100 µM
- TGI [54]: > 100 µM
- TGI [55]: > 100 µM
- TGI [57]: > 100 µM
- TGI [58]: > 100 µM
- TGI [59]: > 100 µM
- TGI [60]: > 100 µM
- TGI [61]: > 100 µM
- TGI [62]: > 100 µM
